Counter-ions that a name gives are not always drawn. ± gives the standard error.
What was measured:
[1] = tested on: 621-102 (TSC2-deficient); assay: relative viability vs DMSO; higher = less cytotoxic; conditions: serum: 10% FBS, 72 h
[2] = tested on: 621-103 (TSC2-rescued); assay: as above; conditions: serum: 10% FBS, 72 h
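Also: immortalized renal angiomyolipoma cells stably carrying empty vector or TSC2, dosed in 384-well plates in DMEM, viability normalized to vehicle-treated wells within each plate.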

SMILES	relative viability ([1]; 0.0001 µM)	relative viability ([1]; 0.001 µM)	relative viability ([1]; 0.01 µM)	relative viability ([1]; 0.1 µM)	relative viability ([1]; 1 µM)	relative viability ([1]; 10 µM)	relative viability ([2]; 0.0001 µM)	relative viability ([2]; 0.001 µM)	relative viability ([2]; 0.01 µM)	relative viability ([2]; 0.1 µM)	relative viability ([2]; 1 µM)	relative viability ([2]; 10 µM)
Cc1nnc(C(=O)NC(C)(C)c2nc(C(=O)NCc3ccc(F)cc3)c(O)c(=O)n2C)o1 [Raltegravir]	106 ± 3.9%	106 ± 3.1%	108 ± 4.3%	101.8 ± 0.33%	110 ± 3.2%	106 ± 3.2%	99.5 ± 3%	101 ± 1.5%	100 ± 1.3%	98.8 ± 1.3%	101 ± 1.4%	105 ± 2.1%
CN(C)Cc1cccc(N/C(=C2\C(=O)Nc3cc(C(N)=O)ccc32)c2ccccc2)c1	103 ± 1.7%	107 ± 0.88%	104 ± 2%	103 ± 2.6%	99.92 ± 0.15%	87.26 ± 0.14%	99.8 ± 1.5%	97.2 ± 1.9%	99.2 ± 1.1%	97.28 ± 0.78%	92.4 ± 6.5%	84.9 ± 2.5%
CCc1c2c(nc3ccc(OC(=O)N4CCC(N5CCCCC5)CC4)cc13)-c1cc3c(c(=O)n1C2)COC(=O)[C@]3(O)CC [Irinotecan HCl Trihydrate]	94 ± 3.9%	98.4 ± 3%	97.8 ± 1.5%	108 ± 4.1%	99.4 ± 3%	63.351 ± 0.053%	107 ± 5.2%	107 ± 3.3%	105 ± 1.8%	101 ± 5.9%	99.3 ± 1.9%	57.5 ± 2.7%
CC(NCCc1ccc(O)cc1)C(O)c1ccc(O)cc1 (stereo not drawn) [Ritodrine HCl]	110 ± 1.6%	112.1 ± 0.64%	101 ± 2.7%	100 ± 1.3%	100 ± 1.4%	102 ± 6.3%	100 ± 5%	98 ± 2.1%	102 ± 2.8%	98.2 ± 6.2%	97.3 ± 6.2%	86.5 ± 1.5%
O=C(c1ccc(F)cc1)C1CCN(CCn2c(=O)[nH]c3ccccc3c2=O)CC1 [Ketanserin (Vulketan Gel)]	89 ± 2.5%	103 ± 2.1%	98.4 ± 2%	103.9 ± 0.64%	92.4 ± 3.8%	88.1 ± 1.1%	113.6 ± 1.1%	103 ± 2.4%	102.89 ± 0.072%	105.8 ± 0.41%	107 ± 1.4%	96.3 ± 1%
Cc1[nH]nc2ccc(-c3cncc(OC[C@@H](N)Cc4ccccc4)c3)cc12	114.1 ± 0.3%	108 ± 3.1%	97.8 ± 2.1%	99.05 ± 0.49%	66.5 ± 1.1%	2.57 ± 0.016%	98.7 ± 4.7%	89.14 ± 0.74%	95.77 ± 0.18%	101 ± 4%	62.2 ± 1%	6.08 ± 0.71%
Cn1c(=O)c(F)c(Nc2ccc(I)cc2F)c2c(=O)n(C[C@@H](O)CO)cnc21 [TAK-733]	101 ± 5.3%	107 ± 2.2%	101 ± 4.8%	95.22 ± 0.047%	67.4 ± 2.4%	54.3 ± 0.28%	97.8 ± 5.4%	84.4 ± 2.9%	83.5 ± 6%	84.4 ± 7%	60.7 ± 6.7%	51.7 ± 4.3%
CCN(CCO)CCCOc1ccc2c(Nc3cc(CC(=O)Nc4cccc(F)c4)[nH]n3)ncnc2c1 [AZD1152-HQPA (Barasertib)]	114 ± 6.7%	111 ± 1.4%	107 ± 2%	79.4 ± 1.5%	68.2 ± 0.79%	73 ± 1.6%	97.225 ± 0.04%	98.1 ± 0.35%	96.9 ± 0.98%	91.9 ± 3.1%	84.56 ± 0.56%	85.5 ± 2.6%
Nc1[nH]cnc2ncnc1-2 [Adenine HCl]	93.9 ± 2%	103 ± 0.93%	97.03 ± 0.37%	97.386 ± 0.086%	96.5 ± 6.5%	110.8 ± 1.1%	95.5 ± 2.2%	96.77 ± 0.35%	92.9 ± 4.8%	102.9 ± 0.83%	96.7 ± 2.2%	120 ± 2.1%
CC(C)[C@H](O)C(=O)N[C@@H](C)C(=O)N[C@@H]1C(=O)N(C)CCc2ccccc21 [Semagacestat]	117 ± 2.5%	118 ± 4.2%	121.4 ± 0.8%	117 ± 2%	118 ± 1.6%	116 ± 2.2%	102 ± 2.3%	98.71 ± 0.85%	101 ± 1.2%	102.5 ± 0.4%	102 ± 1.2%	103 ± 1.7%
CN(C)C1CCN(C(=O)c2ccc(NC(=O)Nc3ccc(-c4nc(N5CCOCC5)nc(N5CCOCC5)n4)cc3)cc2)CC1 [PKI-587]	52.3 ± 1.3%	38.71 ± 0.29%	29.8 ± 0.13%	22.16 ± 0.12%	17.8 ± 0.79%	13.3 ± 0.47%	72.6 ± 3.4%	49.4 ± 3%	44.8 ± 2.2%	33.8 ± 1.2%	26.61 ± 0.072%	19.91 ± 0.074%
O=C(NC[C@H]1CN(c2ccc(N3CCOCC3=O)cc2)C(=O)O1)c1ccc(Cl)s1 [Rivaroxaban (Xarelto)]	101 ± 5.5%	104.4 ± 0.87%	122.4 ± 0.29%	117 ± 6.5%	116 ± 1.6%	120 ± 3.2%	105 ± 2.4%	116 ± 3.4%	121 ± 1.5%	117 ± 2.9%	112 ± 1.1%	104 ± 3.9%
COCCOC(=O)C1=C(C)NC(C)=C(C(=O)OC/C=C/c2ccccc2)C1c1cccc([N+](=O)[O-])c1 (stereo not drawn) [Cilnidipine]	118 ± 4%	100.5 ± 0.18%	102.6 ± 0.79%	95.6 ± 1.2%	99.98 ± 0.81%	98 ± 2.2%	98.6 ± 2.3%	104 ± 3.4%	105.9 ± 0.78%	113 ± 2.5%	100 ± 1.8%	104 ± 3.1%
CCOc1cc2ncc(C#N)c(Nc3ccc(F)c(Cl)c3)c2cc1NC(=O)/C=C/CN(C)C [Pelitinib]	104 ± 2.2%	107.2 ± 0.9%	121.9 ± 0.77%	107 ± 4%	80.44 ± 0.46%	25.2 ± 3.6%	102 ± 1.2%	101 ± 1.5%	100.5 ± 0.68%	98.7 ± 3%	65.38 ± 0.34%	19.6 ± 1.3%
Cc1cn([C@H]2C=C[C@@H](CO)O2)c(=O)[nH]c1=O [Stavudine]	75.4 ± 3.2%	76.7 ± 0.81%	81.206 ± 0.072%	89.1 ± 8.5%	83.4 ± 2.3%	71.2 ± 1.9%	105 ± 1.2%	99.6 ± 5.1%	110 ± 5.4%	109 ± 5.7%	93.2 ± 2.2%	91.2 ± 1.3%
CC[C@@H]1C(=O)N(C)c2cnc(Nc3ccc(C(=O)NC4CCN(C)CC4)cc3OC)nc2N1C1CCCC1 [BI 2536]	98.2 ± 3.1%	80.3 ± 1.5%	47.9 ± 1.7%	44.6 ± 1.5%	51.66 ± 0.21%	29 ± 0.68%	98.6 ± 1.3%	66.74 ± 0.51%	53 ± 1.2%	43.5 ± 1.5%	50.6 ± 0.58%	13 ± 0.48%
O=C(c1ccccc1)c1ccc2n1CCC2C(=O)O (stereo not drawn) [Ketorolac]	102 ± 1.8%	102 ± 4.5%	106 ± 2.7%	109 ± 3.2%	117 ± 4.6%	94.8 ± 7.1%	96.9 ± 1.1%	121 ± 6.7%	128 ± 4%	112 ± 3.3%	98.25 ± 0.73%	108 ± 1.6%
Oc1cccc(-c2nc(N3CCOCC3)c3oc4ncccc4c3n2)c1 [PI-103]	105 ± 1.1%	92.1 ± 7.2%	95.5 ± 3.6%	103 ± 1.9%	91.8 ± 3.4%	37.66 ± 0.19%	112 ± 1.2%	95.6 ± 3.2%	101.2 ± 0.72%	102.5 ± 0.82%	83.4 ± 2.7%	38 ± 0.63%
NC(CO)C(=O)NNCc1ccc(O)c(O)c1O (stereo not drawn) [Benserazide HCl]	98.1 ± 5.3%	93.8 ± 2.6%	103 ± 3.5%	107 ± 1.3%	106 ± 2.3%	101 ± 1.4%	108.8 ± 0.38%	104 ± 2.7%	110 ± 2.1%	109.5 ± 0.88%	114 ± 2.6%	105 ± 3.1%
